± gives the expanded uncertainty stated by the source.
Experiment: xn = mol fraction of the nth substance listed
Conditions: 101.3 kPa, Liquid

Cc1ccc(C)cc1 [1,4-dimethylbenzene] + CCCCCCCC
Conditions | mass density [kg/m3] | viscosity [mPa·s]
298.15 K, x1 = 0.1068 | 712.9 ± 1.2 | 0.5185 ± 0.015
298.15 K, x1 = 0.2121 | 726.39 ± 1.1 | 0.5172 ± 0.015
298.15 K, x1 = 0.3156 | 740.39 ± 1.1 | 0.5216 ± 0.015
298.15 K, x1 = 0.4178 | 755.01 ± 1 | 0.5273 ± 0.015
298.15 K, x1 = 0.5184 | 770.21 ± 0.99 | 0.5297 ± 0.015
298.15 K, x1 = 0.6174 | 786.05 ± 0.93 | 0.5393 ± 0.015
298.15 K, x1 = 0.7152 | 802.61 ± 0.88 | 0.5515 ± 0.015
298.15 K, x1 = 0.8113 | 819.83 ± 0.82 | 0.5678 ± 0.015
298.15 K, x1 = 0.9065 | 837.91 ± 0.76 | 0.5905 ± 0.016
298.15 K, x1 = 1 | 856.7 ± 0.7 | 0.6162 ± 0.017
303.15 K, x1 = 0.1068 | 708.71 ± 1.2 | 0.4829 ± 0.014
303.15 K, x1 = 0.2121 | 722.17 ± 1.1 | 0.4825 ± 0.014
303.15 K, x1 = 0.3156 | 736.15 ± 1.1 | 0.4833 ± 0.014
303.15 K, x1 = 0.4178 | 750.77 ± 1.1 | 0.4919 ± 0.014
303.15 K, x1 = 0.5184 | 765.93 ± 1 | 0.493 ± 0.014
303.15 K, x1 = 0.6174 | 781.76 ± 0.95 | 0.502 ± 0.014
303.15 K, x1 = 0.7152 | 798.3 ± 0.89 | 0.5139 ± 0.014
303.15 K, x1 = 0.8113 | 815.51 ± 0.84 | 0.5299 ± 0.015
303.15 K, x1 = 0.9065 | 833.52 ± 0.78 | 0.5489 ± 0.015
303.15 K, x1 = 1 | 852.35 ± 0.72 | 0.5715 ± 0.015
313.15 K, x1 = 0.1068 | 700.44 ± 1.2 | 0.4298 ± 0.013
313.15 K, x1 = 0.2121 | 713.85 ± 1.2 | 0.4298 ± 0.013
313.15 K, x1 = 0.3156 | 727.78 ± 1.1 | 0.4331 ± 0.013
313.15 K, x1 = 0.4178 | 742.31 ± 1.1 | 0.4373 ± 0.013
313.15 K, x1 = 0.5184 | 757.45 ± 1 | 0.4418 ± 0.013
313.15 K, x1 = 0.6174 | 773.23 ± 0.97 | 0.4483 ± 0.013
313.15 K, x1 = 0.7152 | 789.72 ± 0.92 | 0.4586 ± 0.013
313.15 K, x1 = 0.8113 | 806.89 ± 0.86 | 0.4722 ± 0.014
313.15 K, x1 = 0.9065 | 824.89 ± 0.8 | 0.4895 ± 0.014
313.15 K, x1 = 1 | 843.64 ± 0.74 | 0.508 ± 0.014
323.15 K, x1 = 0.1068 | 692.26 ± 1.2 | 0.3877 ± 0.012
323.15 K, x1 = 0.2121 | 705.6 ± 1.2 | 0.3903 ± 0.012
323.15 K, x1 = 0.3156 | 719.47 ± 1.1 | 0.3901 ± 0.012
323.15 K, x1 = 0.4178 | 733.93 ± 1.1 | 0.3952 ± 0.012
323.15 K, x1 = 0.5184 | 749.01 ± 1.1 | 0.3997 ± 0.012
323.15 K, x1 = 0.6174 | 764.73 ± 1 | 0.4057 ± 0.012
323.15 K, x1 = 0.7152 | 781.17 ± 0.94 | 0.4143 ± 0.013
323.15 K, x1 = 0.8113 | 798.31 ± 0.89 | 0.4269 ± 0.013
323.15 K, x1 = 0.9065 | 816.2 ± 0.83 | 0.4409 ± 0.013
323.15 K, x1 = 1 | 834.9 ± 0.77 | 0.4599 ± 0.013
333.15 K, x1 = 0.1068 | 683.83 ± 1.3 | 0.3528 ± 0.012
333.15 K, x1 = 0.2121 | 697.15 ± 1.2 | 0.3552 ± 0.012
333.15 K, x1 = 0.3156 | 710.96 ± 1.2 | 0.3571 ± 0.012
333.15 K, x1 = 0.4178 | 725.38 ± 1.1 | 0.3617 ± 0.012
333.15 K, x1 = 0.5184 | 740.41 ± 1.1 | 0.3671 ± 0.012
333.15 K, x1 = 0.6174 | 756.08 ± 1 | 0.3753 ± 0.012
333.15 K, x1 = 0.7152 | 772.47 ± 0.97 | 0.3858 ± 0.012
333.15 K, x1 = 0.8113 | 789.52 ± 0.92 | 0.3961 ± 0.012
333.15 K, x1 = 0.9065 | 807.43 ± 0.86 | 0.4138 ± 0.013
333.15 K, x1 = 1 | 826.09 ± 0.8 | 0.4298 ± 0.013
343.15 K, x1 = 0.1068 | 675.29 ± 1.3 | 0.3167 ± 0.011
343.15 K, x1 = 0.2121 | 688.57 ± 1.2 | 0.3164 ± 0.011
343.15 K, x1 = 0.3156 | 702.32 ± 1.2 | 0.3185 ± 0.011
343.15 K, x1 = 0.4178 | 716.69 ± 1.1 | 0.3223 ± 0.011
343.15 K, x1 = 0.5184 | 731.68 ± 1.1 | 0.3271 ± 0.011
343.15 K, x1 = 0.6174 | 747.3 ± 1.1 | 0.3329 ± 0.011
343.15 K, x1 = 0.7152 | 763.64 ± 1 | 0.341 ± 0.011
343.15 K, x1 = 0.8113 | 780.65 ± 0.94 | 0.3481 ± 0.011
343.15 K, x1 = 0.9065 | 798.53 ± 0.89 | 0.3588 ± 0.012
343.15 K, x1 = 1 | 817.17 ± 0.83 | 0.3783 ± 0.012
353.15 K, x1 = 0.1068 | 666.51 ± 1.3 | 0.2856 ± 0.01
353.15 K, x1 = 0.2121 | 679.75 ± 1.3 | 0.2877 ± 0.01
353.15 K, x1 = 0.3156 | 693.48 ± 1.2 | 0.2897 ± 0.01
353.15 K, x1 = 0.4178 | 707.82 ± 1.2 | 0.2939 ± 0.011
353.15 K, x1 = 0.5184 | 722.78 ± 1.1 | 0.2984 ± 0.011
353.15 K, x1 = 0.6174 | 738.37 ± 1.1 | 0.3016 ± 0.011
353.15 K, x1 = 0.7152 | 754.7 ± 1 | 0.3113 ± 0.011
353.15 K, x1 = 0.8113 | 771.7 ± 0.97 | 0.3174 ± 0.011
353.15 K, x1 = 0.9065 | 789.57 ± 0.91 | 0.3264 ± 0.011
353.15 K, x1 = 1 | 808.22 ± 0.85 | 0.3382 ± 0.011

— the NIST ThermoML archive (doi:10.1021/je049776w)
